In brackets after ≈: the same amount, converted by molar mass.
Experiments:
[1] = system: A498; assay: Cytotoxic activity was tested against human A-498 (Kidney carcinoma) cell line; format: functional; settings: read-out: ED50 (the source's name)
[2] = system: A549; assay: Cytotoxic activity was tested against human […] cell line A-549 (lung carcinoma); format: functional; settings: read-out: ED50 (the source's name)
[3] = system: HT-29; assay: Cytotoxic activity was tested against human HT-29 (colon adenocarcinoma) cell line; format: functional; settings: read-out: ED50 (the source's name)
[4] = system: MCF7; assay: Cytotoxic activity was tested against human MCF-7 (breast carcinoma) cell line; format: functional; settings: read-out: ED50 (the source's name)
[5] = system: MIA PaCa-2; assay: Cytotoxic activity was tested against humanPAC-2 (pancreatic carcinoma) cell line; format: functional; settings: Homo sapiens, read-out: ED50 (the source's name)
[6] = system: PC-3; assay: Cytotoxic activity was tested against human PC-3 (prostate adenocarcinoma) cell line; format: functional; settings: read-out: ED50 (the source's name)
[7] = Compound was tested for brine shrimp lethality (BST); format: organism-based; settings: artemia, in vivo
[8] = system: MIA PaCa-2; assay: Cytotoxic activity was tested against human PAC-2 (pancreatici carcinoma) cell line; format: functional; settings: read-out: ED50 (the source's name)

**Q.** With `CCCCCCCCCCCCC(O)C1CCC(C(O)CCC(O)CC(O)CC(O)CCCC(O)CC2=CC(C)OC2=O)O1` (stereo not drawn) as the compound, how does the EC50 [1] read?
**A.** The EC50 was 2.36 µg/mL (≈ 3.75 µM).

**Q.** What about the EC50 [2] of the same compound?
**A.** Its EC50 is 0.34 µg/mL (≈ 0.541 µM).

**Q.** What about the EC50 [3] of the same compound?
**A.** Its EC50 is 0.78 µg/mL (≈ 1.24 µM).

**Q.** And the EC50 [4]?
**A.** Its EC50 is 2.26 µg/mL (≈ 3.59 µM).

**Q.** And the EC50 [5]?
**A.** The EC50 was 0.77 µg/mL (≈ 1.22 µM).

**Q.** And the EC50 [6]?
**A.** Its EC50 is 0.0195 µg/mL (≈ 0.031 µM).

**Q.** What about the LC50 [7] of the same compound?
**A.** The LC50 was 34.4 µg/mL (≈ 54.7 µM).

**Q.** With `COc1cccc2c1C(=O)c1c(O)c3c(c(O)c1C2=O)C[C@@](O)(C(=O)CO)C[C@@H]3O[C@H]1C[C@H](N)[C@H](O)[C@H](C)O1` [DOXORUBICIN] as the compound, how does the EC50 [1] read?
**A.** Its EC50 is 0.0335 µg/mL (≈ 0.0616 µM).

**Q.** And the EC50 [2]?
**A.** The EC50 was 0.0346 µg/mL (≈ 0.0637 µM).

**Q.** What about the EC50 [3] of the same compound?
**A.** Its EC50 is 0.0896 µg/mL (≈ 0.165 µM).

**Q.** And the EC50 [4]?
**A.** The EC50 was 0.43 µg/mL (≈ 0.791 µM).

**Q.** And the EC50 [8]?
**A.** Its EC50 is 0.031 µg/mL (≈ 0.057 µM).

**Q.** What about the EC50 [6] of the same compound?
**A.** The EC50 was 0.33 µg/mL (≈ 0.607 µM).
